Test results from patent publication US10227324B2 (Shanghai Haiyan Pharmaceutical Technology Co., Ltd., priority 2014, dated 2019).

Experiments:
[1] = test system: Akt phosphorylation (Ser473-p-Akt) in PC-3 cells; experiment: Inhibition of p-Akt phosphorylation level in PC-3 cells (cell level fluorescence imaging); type: cell-based; details: Homo sapiens; Akt phosphorylation in PC-3 cells, 2 hours incubation; read-out: PC-3 cell (IC50/nM)
Outline: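 PC-3 cells were exposed to compound (0.0046–10 μM, 8 points, duplicate) for 2 h, then fixed, permeabilised and stained with Ser473-p-Akt antibody, Alexa 488 secondary and PI.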

[2] = Metabolism stability assay in liver microsomes; type: in vitro ADME, mouse; details: liver microsomal metabolism in mice
Method: Buffer A: 1 L solution of 100 mM potassium dihydrogen phosphate containing 1 mM EDTA (Sigma, V900157-100G) was prepared. Buffer B: 1 L solution of 100 mM dipotassium hydrogen phosphate containing 1 mM EDTA was prepared. Buffer C: 700 mL of buffer B was taken out and titrated with buffer A to pH 7.4.
2.1 10 μl of 10 mM compound to be tested and 10 μl of 10 mM ketanserin were taken out and 190 μl of pure acetonitrile was added to each of them to prepare 500 μM compound to be tested and ketanserin, respectively.
2.2 20 μl (20 mg/mL) of liver microsomes (XENOTECH, H0610) stock solution was added to 513.4 μl of buffer C on wet ice. 0.75 mg/mL liver microsomal solution was obtained.
2.3 1.5 μl of each of the above-mentioned compound to be tested and ketanserin solution was added to 498.5 μl of liver microsomal solution (0.7 5 mg/mL) respectively on wet ice. 1.5 μM mixed solution of compound to be tested and 1.5 μM mixed solution of ketanserin were obtained.
2.4 At the time points 0, 5, 15, 30, 45, and 60 min, 30 μl of the mixed solution of compound to be tested and 30 μl of the mixed solution of ketanserin were dispensed into the reaction plate on wet ice, respectively.
2.5 5 mg reduced coenzyme II (Roche, 10621706001) was weighed and dissolved in 1 mL of buffer C. 6 mM reduced coenzyme II solution was obtained. The reduced coenzyme II solution was dispensed into the reaction plate.
2.6 Imipramine was dissolved to give a 10 mM solution. 10 μl imipramine solution was added to 100 mL of blank acetonitrile to generate the internal reference.
2.7 At 0 min, 135 μL of iced acetonitrile (Merck, UN 1648) containing the internal reference was added to each well and then 15 μL of buffer C was added.
2.8 The reaction plate was placed into a 37° C. water bath incubator for 5 min. In the reaction plate, 15 μL of reduced coenzyme II solution was added to each well to initiate the reaction, and the time keeping was started. At the time points of 5, 15, 30, 45, and 60 min, 135 μL of iced acetonitrile containing the internal reference was added to each well to terminate the reaction.
2.9 The reaction plate was sealed with an aluminum film, placed on a vibration mixer and shaken at 500 rpm for 5 min. The plate was then centrifuged in a centrifuge at 3750 rp for 15 min.
2.10 The sample was diluted with pure water in accordance with the ratio of 1:1 and detected by LC/MS.
Half-life: 0.693/K (the slope by plotting based on the incubation time and logarithm of the concentration value)
Clearance ratio: (0.693/half-life)*(1/protein concentration (0.5 mg/mL))*(proportional factor)
Wherein, the K value and the proportional factor were calculated by those skilled in the art according to the methods described in the prior art and contained in the instructions of the liver microsome product.

[3] = test system: MCF-7 cells; experiment: Cell inhibitory activity detected by MTT assay, MCF-7; type: cell-based; details: Homo sapiens, MCF7, 72 h, read-out: MCF-7 cell (IC50/nM), cell growth inhibition
Outline: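 MCF-7 cells in DMEM + 10% FBS were treated after adherence with compounds at 8 concentrations (0.0046–10 μM) for 72 h at 37 °C, 5% CO2.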

IC50 [1] [nM]	Clearance ratio (mL/min/kg) mouse [2] [mL/min/kg]	IC50 [3] [nM]	Compound
131	100.1	301	CS(=O)(=O)C1(c2cc(-c3cnc(N)nc3C(F)(F)F)nc(N3CCOCC3)n2)CC1 [Compound S-46]
369	39.75	27	CS(=O)(=O)C1(c2cc(-c3cnc(N)cc3F)nc(N3CCOCC3)n2)CC1 [Compound S-82]
